# Test results from ChEMBL document CHEMBL1201862, “PubChem BioAssay data set” (2004).
#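 Cultured in 96-well plates, cells were exposed to test compound for 48 hours across five concentrations. Here, GI50 denotes the concentration required for 50% inhibition of growth.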 Activity calls are given as the source filed them. No stated cut-off is given here; in the data, active = GI50 up to about 1.1 µM and inactive = higher.
# Key:
# Experiment in all cases: DTP human tumour cell line panel, 48 h
# [1] = tested on: UACC-257
# [2] = tested on: SF-295
# [3] = tested on: NCI-H460
# [4] = tested on: HCT-116
# [5] = tested on: COLO 205
# [6] = tested on: ACHN
# [7] = tested on: UO-31
# [8] = tested on: UACC-62
# [9] = tested on: HOP-92
# [10] = tested on: LXFL 529
# [11] = tested on: LOX IMVI
# [12] = tested on: DMS-273
# [13] = tested on: A549
# [14] = tested on: SK-MEL-28
# [15] = tested on: SR
# [16] = tested on: RXF 393
# [17] = tested on: HCC 2998
# [18] = tested on: HOP-62
# [19] = tested on: M19-MEL
# [20] = tested on: OVCAR-4
# [21] = tested on: CCRF-CEM
# [22] = tested on: IGROV-1
# [23] = tested on: SN12C
# [24] = tested on: NCI-H23
# [25] = tested on: RXF 631
# [26] = tested on: SF-268
# [27] = tested on: KM-20L2
# [28] = tested on: HOP-18
# [29] = tested on: TK-10
# [30] = tested on: SNB-78
# [31] = tested on: SNB-75
# [32] = tested on: SNB-19
# [33] = tested on: M14
# [34] = tested on: SW-620
# [35] = tested on: DMS-114
# [36] = tested on: K562
# [37] = tested on: SK-MEL-5
# [38] = tested on: NCI-H522
# [39] = tested on: A498
# [40] = tested on: OVCAR-3
# [41] = tested on: DLD-1
# [42] = tested on: OVCAR-8
# [43] = tested on: 786-0
# [44] = tested on: NCI-H226
# [45] = tested on: SK-OV-3
# [46] = tested on: HT-29
# [47] = tested on: U-251
# [48] = tested on: HL-60
# [49] = tested on: SK-MEL-2
# [50] = tested on: Malme-3M
# [51] = tested on: HCT-15
# [52] = tested on: KM12
# [53] = tested on: SF-539
# [54] = tested on: CAKI-1
# [55] = tested on: EKVX
# [56] = tested on: MOLT-4
# [57] = tested on: OVCAR-5
# [58] = tested on: XF498
# [59] = tested on: RPMI-8226
structure (smiles),measurement,setting,value
O=C1CCC(c2nc3ccccc3o2)C(=O)N1 (stereo not given),GI50,[1],> 100 µM (inactive)
same,GI50,[2],> 100 µM (inactive)
same,GI50,[3],> 100 µM (inactive)
same,GI50,[4],> 100 µM (inactive)
same,GI50,[5],> 100 µM (inactive)
same,GI50,[6],> 100 µM (inactive)
same,GI50,[7],> 100 µM (inactive)
same,GI50,[8],> 100 µM (inactive)
same,GI50,[9],> 100 µM (inactive)
same,GI50,[10],> 100 µM (inactive)
same,GI50,[11],> 100 µM (inactive)
same,GI50,[12],> 100 µM (inactive)
same,GI50,[13],> 100 µM (inactive)
same,GI50,[14],> 100 µM (inactive)
same,GI50,[15],> 100 µM (inactive)
same,GI50,[16],> 100 µM (inactive)
same,GI50,[17],> 100 µM (inactive)
same,GI50,[18],> 100 µM (inactive)
same,GI50,[19],> 100 µM (inactive)
same,GI50,[20],> 100 µM (inactive)
same,GI50,[21],> 100 µM (inactive)
same,GI50,[22],> 100 µM (inactive)
same,GI50,[23],> 100 µM (inactive)
same,GI50,[24],> 100 µM (inactive)
same,GI50,[25],> 100 µM (inactive)
same,GI50,[26],> 100 µM (inactive)
same,GI50,[27],> 100 µM (inactive)
same,GI50,[28],> 100 µM (inactive)
same,GI50,[29],> 100 µM (inactive)
same,GI50,[30],> 100 µM (inactive)
same,GI50,[31],79.1 µM (inactive)
same,GI50,[32],> 100 µM (inactive)
same,GI50,[33],> 100 µM (inactive)
same,GI50,[34],> 100 µM (inactive)
same,GI50,[35],> 100 µM (inactive)
same,GI50,[36],> 100 µM (inactive)
same,GI50,[37],> 100 µM (inactive)
same,GI50,[38],> 100 µM (inactive)
same,GI50,[39],> 100 µM (inactive)
same,GI50,[40],> 100 µM (inactive)
same,GI50,[41],> 100 µM (inactive)
same,GI50,[42],> 100 µM (inactive)
same,GI50,[43],> 100 µM (inactive)
same,GI50,[44],> 100 µM (inactive)
same,GI50,[45],> 100 µM (inactive)
same,GI50,[46],> 100 µM (inactive)
same,GI50,[47],> 100 µM (inactive)
same,GI50,[48],> 100 µM (inactive)
same,GI50,[49],> 100 µM (inactive)
same,GI50,[50],> 100 µM (inactive)
same,GI50,[51],> 100 µM
same,GI50,[52],> 100 µM (inactive)
same,GI50,[53],> 100 µM (inactive)
same,GI50,[54],> 100 µM (inactive)
same,GI50,[55],> 100 µM (inactive)
same,GI50,[56],> 100 µM (inactive)
Cc1c2ccncc2c(C)c2c1[nH]c1ccc(OC(C)(C)C)cc12,GI50,[1],1.97 µM (inactive)
same,GI50,[2],2.07 µM (inactive)
same,GI50,[3],1.93 µM (inactive)
same,GI50,[4],1.67 µM (inactive)
same,GI50,[5],1.47 µM (inactive)
same,GI50,[7],1.91 µM (inactive)
same,GI50,[8],2.31 µM (inactive)
same,GI50,[9],9.82 µM (inactive)
same,GI50,[10],2.23 µM (inactive)
same,GI50,[11],2.24 µM (inactive)
same,GI50,[12],1.86 µM (inactive)
same,GI50,[13],3.15 µM (inactive)
same,GI50,[14],1.76 µM (inactive)
same,GI50,[17],1.85 µM (inactive)
same,GI50,[18],2.88 µM (inactive)
same,GI50,[19],2.14 µM (inactive)
same,GI50,[20],1.98 µM (inactive)
same,GI50,[21],2.07 µM (inactive)
same,GI50,[22],4.7 µM (inactive)
same,GI50,[24],5.36 µM (inactive)
same,GI50,[25],2.45 µM (inactive)
same,GI50,[26],5.12 µM (inactive)
same,GI50,[27],1.78 µM (inactive)
same,GI50,[29],4.88 µM (inactive)
same,GI50,[57],11.7 µM (inactive)
same,GI50,[30],2.41 µM (inactive)
same,GI50,[58],1.93 µM (inactive)
same,GI50,[31],1.85 µM (inactive)
same,GI50,[32],2.47 µM (inactive)
same,GI50,[33],4.06 µM (inactive)
same,GI50,[34],2.14 µM (inactive)
same,GI50,[35],2.02 µM (inactive)
same,GI50,[36],2.08 µM (inactive)
same,GI50,[37],2.14 µM (inactive)
same,GI50,[38],2.44 µM (inactive)
same,GI50,[39],12.2 µM (inactive)
same,GI50,[40],1.73 µM (inactive)
same,GI50,[41],2.39 µM (inactive)
same,GI50,[59],2.08 µM (inactive)
same,GI50,[42],2.51 µM (inactive)
same,GI50,[43],1.53 µM (inactive)
same,GI50,[44],3.17 µM (inactive)
same,GI50,[45],4.42 µM (inactive)
same,GI50,[46],2.29 µM (inactive)
same,GI50,[47],2.82 µM (inactive)
same,GI50,[48],1.81 µM (inactive)
same,GI50,[49],2.03 µM (inactive)
same,GI50,[50],1.77 µM (inactive)
same,GI50,[53],1.57 µM (inactive)
same,GI50,[54],1.81 µM (inactive)
same,GI50,[55],11.1 µM (inactive)
same,GI50,[56],1.67 µM (inactive)
COC(=O)C1CC2(CC3=C1CCCC3)OCCO2 (stereo not given),GI50,[1],> 100 µM (inactive)
same,GI50,[2],> 100 µM (inactive)
same,GI50,[3],> 100 µM (inactive)
same,GI50,[4],> 100 µM (inactive)
same,GI50,[5],> 100 µM (inactive)
same,GI50,[7],> 100 µM (inactive)
same,GI50,[8],> 100 µM (inactive)
same,GI50,[9],> 100 µM (inactive)
same,GI50,[10],> 100 µM (inactive)
same,GI50,[11],> 100 µM (inactive)
same,GI50,[12],> 100 µM (inactive)
same,GI50,[13],> 100 µM (inactive)
same,GI50,[14],> 100 µM (inactive)
same,GI50,[16],> 100 µM (inactive)
same,GI50,[17],> 100 µM (inactive)
same,GI50,[18],> 100 µM (inactive)
same,GI50,[19],> 100 µM (inactive)
same,GI50,[20],> 100 µM (inactive)
same,GI50,[21],> 100 µM (inactive)
same,GI50,[22],> 100 µM (inactive)
same,GI50,[23],> 100 µM (inactive)
same,GI50,[24],> 100 µM (inactive)
same,GI50,[25],> 100 µM (inactive)
same,GI50,[26],> 100 µM (inactive)
same,GI50,[29],> 100 µM (inactive)
same,GI50,[30],> 100 µM (inactive)
same,GI50,[58],> 100 µM (inactive)
same,GI50,[31],> 100 µM (inactive)
same,GI50,[32],> 100 µM (inactive)
same,GI50,[33],> 100 µM (inactive)
same,GI50,[34],> 100 µM (inactive)
same,GI50,[35],> 100 µM (inactive)
same,GI50,[36],> 100 µM (inactive)
same,GI50,[37],> 100 µM (inactive)
same,GI50,[38],> 100 µM (inactive)
same,GI50,[39],> 100 µM (inactive)
same,GI50,[40],> 100 µM (inactive)
same,GI50,[41],> 100 µM (inactive)
same,GI50,[59],> 100 µM (inactive)
same,GI50,[42],> 100 µM (inactive)
same,GI50,[43],> 100 µM (inactive)
same,GI50,[45],> 100 µM (inactive)
same,GI50,[46],> 100 µM (inactive)
same,GI50,[47],> 100 µM (inactive)
same,GI50,[48],> 100 µM (inactive)
same,GI50,[49],> 100 µM (inactive)
same,GI50,[50],> 100 µM (inactive)
same,GI50,[51],> 100 µM
same,GI50,[52],> 100 µM (inactive)
same,GI50,[53],> 100 µM (inactive)
same,GI50,[54],> 100 µM (inactive)
same,GI50,[55],> 100 µM (inactive)
